Laboratory results from PubChem BioAssay (NCI).
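Interpolation was linear, between the two tested concentrations surrounding the appropriate level; five concentrations were tested over 48 hours in 96-well plates. The concentration for 50% growth inhibition is given as GI50. TGI denotes the concentration required for complete inhibition of growth.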

Legend:
Assay in all cases: inhibition of tumour cell growth, NCI panel, 48 h
UO-31 renal = tested on: UO-31 renal
HL-60(TB) leukemia = tested on: HL-60(TB) leukemia
NCI-H522 lung = tested on: NCI-H522 lung
TK-10 renal = tested on: TK-10 renal
UACC-62 melanoma = tested on: UACC-62 melanoma
HOP-92 NSCLC = tested on: HOP-92 NSCLC
KM12 colon = tested on: KM12 colon
OVCAR-4 ovarian = tested on: OVCAR-4 ovarian
LOX IMVI melanoma = tested on: LOX IMVI melanoma
MCF7 breast = tested on: MCF7 breast

Compound	TGI (UO-31 renal) [µM]	TGI (HL-60(TB) leukemia) [µM]	TGI (NCI-H522 lung) [µM]	TGI (TK-10 renal) [µM]	TGI (UACC-62 melanoma) [µM]	TGI (HOP-92 NSCLC) [µM]	TGI (KM12 colon) [µM]	TGI (OVCAR-4 ovarian) [µM]	GI50 (UO-31 renal) [µM]	GI50 (HL-60(TB) leukemia) [µM]	GI50 (NCI-H522 lung) [µM]	GI50 (LOX IMVI melanoma) [µM]	TGI (LOX IMVI melanoma) [µM]	GI50 (TK-10 renal) [µM]	GI50 (UACC-62 melanoma) [µM]	GI50 (MCF7 breast) [µM]	TGI (MCF7 breast) [µM]	GI50 (KM12 colon) [µM]	GI50 (OVCAR-4 ovarian) [µM]	GI50 (HOP-92 NSCLC) [µM]
O=C(c1ccccc1)c1c(CC(O)c2cccnc2)n(C(=O)c2ccccc2)c2ccccc12 (stereo unspecified)	32.6	49	30.1	86.3	34.3	30.9	36.3	42.4	–	–	–	–	–	–	–	–	–	–	–	–
CC(C)N(C(=O)C12C3C4C1C1C2C3C41C(O)C(C)(C)C)C(C)C (stereo unspecified)	> 50	> 50	> 50	–	> 50	> 50	–	–	–	–	–	–	–	–	–	–	–	–	–	–
CCN(c1ccc(CO)c(Cl)c1)C(C)c1ccc(F)cc1 (stereo unspecified)	29.1	38.1	26.7	6.11	16.9	–	32.5	20.7	15.3	17.9	12.7	17.1	32.9	1.12	3.79	12.5	27.1	17	7.97	–
Cc1cc([N+](=O)[O-])c(C)c2c1[nH]c1ccc(/C(CCC3CCCC3)=N\N)cc12	30	–	35	27.3	–	–	34.9	53.9	–	–	–	–	29.6	–	–	–	–	–	–	–
Cc1c(C)c2cc3c(=O)ccoc3c(C)c2oc1=O	> 100	> 100	> 100	> 100	> 100	–	> 100	–	–	–	–	–	> 100	–	–	–	–	–	–	–
O=C1[C@@H](c2ccc(Cl)cc2)[C@H]2CC=C[C@H]2N1O	> 100	> 100	> 100	> 100	> 100	–	> 100	–	–	–	–	–	> 100	–	–	–	–	–	–	–
COc1ccc2nc(-c3ccccc3)cc(Nc3cccc(/C(C)=N\O)c3)c2c1	> 100	> 100	> 100	9.69	30.5	5.66	–	> 100	9.66	> 100	73.9	–	–	2.56	5.42	16.8	> 100	–	5.65	1.93
C=C(C)C1CC2C(C)=C(OC(C)=O)C1n1c(=O)c3cc4ccccc4cc3c(=O)n12 (stereo unspecified)	> 100	> 36	> 100	> 100	> 100	> 100	> 100	> 100	–	–	–	–	> 100	–	–	–	–	–	–	–
C[n+]1cc2c3c(ccc2c2ccc4cc5c(cc4c21)OCO5)OCO3	1.7	2.7	1.41	2.65	2.08	2.05	1.64	–	0.359	0.445	0.3	0.171	0.411	1.33	0.744	–	–	0.455	–	0.584
CC[O-].CC[O-].O=C1C(=C([O-])c2ccccc2)C(=O)c2ccccc21.O=C1C(=C([O-])c2ccccc2)C(=O)c2ccccc21.[Ti+4]	> 100	> 100	–	–	> 100	> 100	–	> 100	> 100	> 100	–	> 100	> 100	–	> 100	–	–	–	> 100	95.1
O=[N+]([O-])c1ccc(N=Nc2c(O)[nH]c3ccc([N+](=O)[O-])cc23)cc1	59.8	–	50.4	54.7	36.5	25.6	30.8	38.6	–	–	–	–	> 100	–	–	–	–	–	–	–
O=C(CC(C(=O)c1cccs1)c1ccc2c(c1)OCO2)c1ccc(Br)cc1 (stereo unspecified)	> 100	> 100	–	> 100	> 100	–	> 100	> 100	–	–	–	–	–	–	–	–	> 100	–	–	–
CC(C)c1ccc2nc3ccc(C(=O)NCCN(C)C)cn3c(=O)c2c1	29.5	42.1	29.3	34.3	32.3	–	33	56.5	–	–	–	–	–	–	–	–	30.8	–	–	–
Cc1cc(C)c2c(c1)CN1CN2Cc2cc(C)cc(C)c21	43.5	48.8	53.4	37.7	35.9	–	37.1	50.8	–	–	–	–	30.7	–	–	–	–	–	–	–
Cc1cc(Cl)ccc1NC(=O)C(=O)Cc1nc2ccc(C(=O)c3ccccc3)cc2[nH]c1=O	> 100	> 100	> 100	> 100	> 100	> 100	> 100	> 100	–	–	–	–	> 100	–	–	–	–	–	–	–
COC(=O)C1=CCON(c2ccccc2)C1c1ccccc1 (stereo unspecified)	> 100	61.7	93.8	> 100	> 100	–	> 100	–	–	–	–	–	> 100	–	–	–	–	–	–	–
COc1ccc(OC)c(-c2cc(-c3ccccc3)nn2-c2ccc(S(=O)(=O)NC(C)=O)cc2)c1	> 100	> 100	34.8	33.1	22.9	38.9	39.6	–	25.3	28	10.4	–	–	12.8	10.9	2.38	> 100	4.66	–	14.4
CON(C)C(=O)C(C)NC(=O)OCc1ccccc1 (stereo unspecified)	> 100	> 100	–	> 100	> 100	> 100	> 100	–	–	–	–	–	–	–	–	–	> 100	–	–	–
O=c1oc2ccccc2c(O)c1C=NC(=S)c1ccncc1	> 100	35.5	–	> 100	> 100	> 100	> 100	> 100	–	–	–	–	> 100	–	–	–	> 100	–	–	–
C/C(=N/N(C=O)C[n+]1ccccc1)C(CN(CC(C)C)CC(C)C)C(=O)Nc1ccc(C)cc1C (stereo unspecified)	84.3	> 100	> 100	> 100	> 100	> 100	> 100	> 100	–	–	–	–	–	–	–	–	–	–	–	–
